Measured values: patent publication US11793880B2, “Conjugates of quaternized tubulysin compounds” (Seagen Inc., priority 2015, dated 2023)

Key:
Karpas299, ALCL = experiment: In vitro assays - tubulysin free drugs, CellTiter-Glo growth inhibition; assay type: cell-based; details: free drug
Procedure: (§1) In vitro assays. Cells cultured in log-phase growth were seeded for 24 h in 96-well plates containing 150 μL RPMI 1640 supplemented with 20% FBS. Serial dilutions of antibody-drug conjugates in cell culture media were prepared at 4× working concentrations; 50 μL of each dilution was added to the 96-well plates. Following addition of ADC, cells were incubated with test articles for 4 d at 37° C. After 96 h, growth inhibition was assessed by CellTiter-Glo® (Promega, Madison, WI) and luminescence was measured on a plate reader. The IC50 value, determined in triplicate, is defined here as the concentration that results in a 50% reduction in cell growth relative to untreated controls.
(§2) In vitro assays—tubulysin free drugs. Cells were treated for 96 hours with tubulysin ether analogs (40-42) or tubulysin M (7), then assessed for viability as described in the methods.
(§3) The tubulysin ester analogs (133-137) and unsaturated ether analogs (176-179) were tested in vitro for potency relative to tubulysin M (7), following a 96 hour exposure. As shown by IC50 values (nM) of Table 2, Tubulysin esters 133-136 performed comparably to tubulysin M, with similar potencies across of the cell lines.

L428, MDR + HL [1] = experiment: as above; assay type: cell-based; details: free drug
Procedure: as §1, §2, §3

HL60, AML = experiment: as above; assay type: cell-based
Procedure: as §1, §2, §3
(§4) A series of analogues of the ethyl ether tubulysin compound TubOEt (41) were synthesized on solid phase lanterns that maintain the ethyl ether substitution, while either varying the residue at the Ile position (203-215) or the Mep position (216-221). Following cleavage from the solid phase, the analogues were obtained in >85% purity and tested without further purification. The compounds were tested in vitro for potency relative to a sample of TubOEt synthesized in parallel on a lantern (41-lantern), following a 96 hour exposure, with IC5O values expressed in nM (Table 3). While in many cases an attenuation in activity was observed relative to 41-lantern, some well-tolerated substitutions were found. […] While this stereochemical preference is not observed when Ile is replaced with O-methyl threonine (207) or O-methyl allothreonine (206), bulkier substituents led to a greater differentiation. […] Replacement of the Mep residue was generally less-well tolerated.

HL60/RV, MDR + AML = experiment: as above; assay type: cell-based
Procedure: as §1, §2, §3, §4

L540cy, HL [2] = experiment: as above; assay type: cell-based
Procedure: as §1, §2, §3, §4

DEL/BVR, MDR + ALCL = details: Table 4; cAC10 ADCs DAR 8, 96 h
Procedure: (§5) In vitro assays. Cells cultured in log-phase growth were seeded for 24 h in 96-well plates containing 150 μL RPMI 1640 supplemented with 20% FBS. Serial dilutions of antibody-drug conjugates in cell culture media were prepared at 4× working concentrations; 50 μL of each dilution was added to the 96-well plates. […] After 96 h, growth inhibition was assessed by CellTiter-Glo® (Promega, Madison, WI) and luminescence was measured on a plate reader.
(§6) In vitro assays—tubulysin ADCs. ADCs were prepared by t Ell reduction of interchain disulfides to reveal 8-conjugatable cysteines/antibody that were alkylated through Michael addition with the maleimide-containing Drug Linker compounds. […] conjugates hearing quaternized tubulysin ethers with and without a PEG12 side-chain were compared to their tubulysin M analogs.
(§7) Several hydrophilic linker constructs incorporating quaternized tubulysin M were prepared and evaluated in vitro; the results are shown in Table 5. The data (IC50 values in ng/mL) indicate that Conjugates prepared from Drug Linker compounds having quaternized tubulysin M linked via a hydrophilic ValGlu dipeptide with (95) or without (91) a PEG12 side chain, or linked via a hydrophilic glucuronide (82) provide ADCs that are equipotent to the ValAla comparator (15).

L428, MDR + HL [3] = details: Table 4; cAC10 ADCs DAR 8, 96 h
Procedure: as §5, §6, §7

L540cy, HL [4] = details: Table 4; cAC10 ADCs DAR 8, 96 h
Procedure: as §5, §6, §7

HepG2, HCC = experiment: In vitro assays - TubOEt analogues, CellTiter-Glo growth inhibition; assay type: cell-based; details: Homo sapiens, Table 3, lantern-made analogues >85% purity, 96 hour exposure
Procedure: as §1, §4

Ramos, NHL = experiment: as above; assay type: cell-based; details: Homo sapiens, Table 3, lantern-made analogues >85% purity, 96 hour exposure
Procedure: as §1, §4

U266 MM = experiment: as above; assay type: cell-based; details: Homo sapiens, U-266; Table 3; lantern-made analogues >85% purity, 96 hour exposure
Procedure: as §1, §4

[5] = test system: HepG2, L540cy, Ramos, U266, HL60, HL60/RV cell lines; experiment: In vitro assays - TubOEt analogues, statements across the cell line panel; assay type: cell-based; details: Table 3 cell lines, 96 hour exposure
Procedure: as §1, §4

[6] = Table 1 (examples), free drug, 96 hours
[7] = Homo sapiens, KARPAS-299, 96 h, Table 2, 96 hour exposure
[8] = Homo sapiens, L-428, 96 h, Table 2, 96 hour exposure
[9] = Homo sapiens, HL-60, 96 h, Table 2, free drug, 96 hour exposure
[10] = L540cy, 96 h, Table 2, free drug, 96 hour exposure
[11] = Homo sapiens, HL-60, 96 h, Table 3, lantern-made analogues >85% purity, 96 hour exposure
[12] = L540cy, 96 h, Table 3, lantern-made analogues >85% purity, 96 hour exposure

Row | Structure (SMILES) | IC50 (Karpas299, ALCL; [7]) [nM] | IC50 (L428, MDR + HL [1]; [8]) [nM] | IC50 (HL60, AML; [9]) [nM] | IC50 (HL60/RV, MDR + AML; [9]) [nM] | IC50 (L540cy, HL [2]; [10]) [nM] | IC50 (HL60, AML; [11]) [nM] | IC50 (HL60/RV, MDR + AML; [11]) [nM] | IC50 (L540cy, HL [2]; [12]) [nM] | IC50 (HepG2, HCC) [nM] | IC50 (Ramos, NHL) [nM] | IC50 (U266 MM) [nM] | potency / cytotoxicity of TubOEt analogues, in words [5] | also measured
1 | CCCO[C@H](C[C@H](C(C)C)N(C)C(=O)[C@@H](NC(=O)[C@H]1CCCCN1C)[C@@H](C)CC)c1nc(C(=O)N[C@@H](Cc2ccccc2)C[C@H](C)C(=O)O)cs1 [Compound 42, (2S,4R)-4-(2-((1R,3R)-3-((2S,3S)—N,3-dimethyl-2-((R)-1-methylpiperidine-2-carboxamido)pentanamido)-4-methyl-1-propoxypentyl)thiazole-4-carboxamido)-2-methyl-5-phenylpentanoic add] | – | – | – | – | – | – | – | – | – | – | – | – | IC50 (Karpas299, ALCL; Table 1 (examples), 96 hours): 0.15 nM; IC50 (L428, MDR + HL [1]; Table 1 (examples), 96 hours): 0.4 nM; IC50 (HL60, AML; [6]): 0.17 nM; IC50 (HL60/RV, MDR + AML; [6]): 14 nM; IC50 (L540cy, HL [2]; [6]): 0.13 nM
2 | CCCO[C@H](C[C@H](C(C)C)N(C)C(=O)[C@@H](NC(=O)[C@H]1CCCC[N+]1(C)Cc1ccc(O[C@@H]2O[C@H](C(=O)O)[C@@H](O)[C@H](O)[C@H]2O)c(NC(=O)CCNC(=O)[C@H](CN)N2C(=O)C=CC2=O)c1)[C@@H](C)CC)c1nc(C(=O)N[C@@H](Cc2ccccc2)C[C@H](C)C(=O)O)cs1 (some centres unmarked) [Compound 58] | – | – | – | – | – | – | – | – | – | – | – | – | IC50, DEL/BVR, MDR + ALCL (DEL/BVR, MDR + ALCL): 0.01 µg/mL; IC50, L428, MDR + HL (L428, MDR + HL [3]): 0.117 µg/mL; IC50, L540cy, HL (L540cy, HL [4]): 0.006 µg/mL
3 | CCC(=O)O[C@H](C[C@H](C(C)C)N(C)C(=O)[C@@H](NC(=O)[C@H]1CCCCN1C)[C@@H](C)CC)c1nc(C(=O)N[C@@H](Cc2ccccc2)C[C@H](C)C(=O)O)cs1 [Compound 133, (2S,4R)-4-(2-((1R,3R)-3-((2S,3S)—N,3-dimethyl-2-((R)-1-methylpiperidine-2-carboxamido)pentanamido)-4-methyl-1-(propionyloxy)pentyl)thiazole-4-carboxamido)-2-methyl-5-phenylpentanoic acid] | 0.02 | 0.04 | 0.1 | 1 | 0.06 | – | – | – | – | – | – | – | –
4 | CCCC(=O)O[C@H](C[C@H](C(C)C)N(C)C(=O)[C@@H](NC(=O)[C@H]1CCCCN1C)[C@@H](C)CC)c1nc(C(=O)N[C@@H](Cc2ccccc2)C[C@H](C)C(=O)O)cs1 [Compound 134, (2S,4R)-4-(2-((1R,3R)-1-(butyryloxy)-3-((2S,3S)—N,3-dimethyl-2-((R)-1-methylpiperidine-2-carboxamido)pentanamido)-4-methylpentyl)thiazole-4-carboxamido)-2-methyl-5-phenylpentanoic acid] | 0.011 | 0.05 | 0.08 | 3 | 0.04 | – | – | – | – | – | – | – | –
5 | CC[C@H](C)[C@H](NC(=O)[C@H]1CCCCN1C)C(=O)N(C)[C@H](C[C@@H](OC(=O)C(C)C)c1nc(C(=O)N[C@@H](Cc2ccccc2)C[C@H](C)C(=O)O)cs1)C(C)C [Compound 135, (2S,4R)-4-(2-((1R,3R)-3-((2S,3S)—N,3-dimethyl-2-((R)-1-methylpiperidine-2-carboxamido)pentanamido)-1-(isobutyryloxy)-4-methylpentyl)thiazole-4-carboxamido)-2-methyl-5-phenylpentanoic acid] | 0.02 | 0.12 | 0.1 | 6 | 0.1 | – | – | – | – | – | – | – | –
6 | CC[C@H](C)[C@H](NC(=O)[C@H]1CCCCN1C)C(=O)N(C)[C@H](C[C@@H](OC(=O)CC(C)C)c1nc(C(=O)N[C@@H](Cc2ccccc2)C[C@H](C)C(=O)O)cs1)C(C)C [Compound 136, (2S,4R)-4-(2-((1R,3R)-3-((2S,3S)—N,3-dimethyl-2-((R)-1-methylpiperidine-2-carboxamido)pentanamido)-4-methyl-1-((3-methylbutanoyl)oxy)pentyl)thiazole-4-carboxamido)-2-methyl-5-phenylpentanoic acid] | 0.02 | 0.11 | 0.04 | 6 | 0.06 | – | – | – | – | – | – | – | –
7 | CCO[C@H](C[C@H](C(C)C)N(C)C(=O)[C@@H](NC(=O)[C@H]1CCCCN1C)C1CCCC1)c1nc(C(=O)N[C@@H](Cc2ccccc2)C[C@H](C)C(=O)O)cs1 [Compound 204, (2S,4R)-4-(2-((1R,3R)-3-((S)-2-cyclopentyl-N-methyl-2-((R)-1-methylpiperidine-2-carboxamido)acetamido)-1-ethoxy-4-methylpentyl)thiazole-4-carboxamido)-2-methyl-5-phenylpentanoic acid] | – | – | – | – | – | 1 | 40 | 0.4 | 2 | 0.2 | 0.1 | potent | –
8 | CCO[C@H](C[C@H](C(C)C)N(C)C(=O)[C@@H](NC(=O)[C@H]1CCCCN1C)C1CCCCC1)c1nc(C(=O)N[C@@H](Cc2ccccc2)C[C@H](C)C(=O)O)cs1 [Compound 205, (2S,4R)-4-(2-((1R,3R)-3-((S)-2-cyclohexyl-N-methyl-2-((R)-1-methylpiperidine-2-carboxamido)acetamido)-1-ethoxy-4-methylpentyl)thiazole-4-carboxamido)-2-methyl-5-phenylpentanoic acid] | – | – | – | – | – | 2 | 177 | 1 | 7 | 0.5 | 0.5 | potent | –
9 | CCO[C@H](C[C@H](C(C)C)N(C)C(=O)[C@@H](NC(=O)[C@H]1CCCCN1C)C1CCOCC1)c1nc(C(=O)N[C@@H](Cc2ccccc2)C[C@H](C)C(=O)O)cs1 [Compound 210, (2S,4R)-4-(2-((1R,3R)-1-ethoxy-4-methyl-3-((S)—N-methyl-2-((R)-1-methylpiperidine-2-carboxamido)-2-(tetrahydro-2H-pyran-4-yl)acetamido)pentyl)thiazole-4-carboxamido)-2-methyl-5-phenylpentanoic acid] | – | – | – | – | – | > 1000 | > 1000 | > 1000 | > 1000 | > 1000 | > 1000 | inactive against all cell lines tested | –
10 | CCO[C@H](C[C@H](C(C)C)N(C)C(=O)[C@@H](NC(=O)[C@H]1CCCCN1C)[C@@H](C)OC(C)(C)C)c1nc(C(=O)N[C@@H](Cc2ccccc2)C[C@H](C)C(=O)O)cs1 [Compound 215, (2S,4R)-4-(2-((1R,3R)-3-((2S,3R)-3-(tert-butoxy)-N-methyl-2-((R)-1-methylpiperidine-2-carboxamido)butanamido)-1-ethoxy-4-methylpentyl)thiazole-4-carboxamido)-2-methyl-5-phenylpentanoic acid] | – | – | – | – | – | 1 | 33 | 0.2 | 1 | 0.2 | 0.1 | significantly more potent | –
